Data from US8329447B2, “Strain of Lactobacillus crispatus” (Osel, Inc., priority 2008, dated 2012).
“Also recorded” adds a separate entry of the source.

tested on: SJ-3C cells; test: Agar overlay disc diffusion antibiotic susceptibility; assay type: cell-based, Lactobacillus crispatus; settings: BBL Sensi-Disc on MRS agar overlay, 37° C. overnight anaerobically

Q: For `O=C(O)c1cn(C2CC2)c2cc(N3CCNCC3)c(F)cc2c1=O` [ciprofloxacin], which “antibiotic susceptibility or resistance of SJ-3C” value is on record?
A: Its value is “resistance”.

Q: Which “antibiotic susceptibility or resistance of SJ-3C” value does the source give for `C[C@@H]1O[C@@H]1P(=O)(O)O` [fosfomycin] here?
A: The value was “resistance”.

Q: `CCC[C@@H]1C[C@@H](C(=O)N[C@@H]([C@H]2O[C@H](SC)[C@H](O)[C@@H](O)[C@H]2O)[C@@H](C)O)N(C)C1` [lincomycin] was tested. Which “antibiotic susceptibility or resistance of SJ-3C” value did it give?
A: The value was “resistance; also recorded: resistant”.

Q: How did the “antibiotic susceptibility or resistance of SJ-3C” value turn out when `Cc1ncc([N+](=O)[O-])n1CCO` [metronidazole] was run?
A: Its value is “resistance”.

Q: With `Cc1noc(NS(=O)(=O)c2ccc(N)cc2)c1C` [sulfisoxazole] as the compound, how does the “antibiotic susceptibility or resistance of SJ-3C” value read?
A: The value was “resistance”.

Q: Which “antibiotic susceptibility or resistance of SJ-3C” value does the source give for gentamicin here?
A: Its value is “resistance”.

Q: For sulfamethoxazole-trimethoprim, which “antibiotic susceptibility or resistance of SJ-3C” value is on record?
A: The value was “resistance”.
